Publication PMC8313942, “Lipase from new isolate Bacillus cereus ATA179: optimization of production conditions, partial purification, characterization and its potential in the detergent industry” (Turkish Journal of Biology, 2021)

Test system: T1, lipase from Bacillus cereus ATA179
T1 construct: gene extracellular lipase; 47 kDa by SDS-PAGE
Experiment: lipase activity at varied tributyrin, Lineweaver-Burk plot
Format: biochemical
Conditions: tributyrin 0.1-1.2 mM; partially purified enzyme; pH and temperature of the kinetic assay not given

Compound: CCCC(=O)OCC(COC(=O)CCC)OC(=O)CCC [tributyrin]
- Km: 110 µM
